For the series, the system named is Human Corneal Epithelial Cells. Description: In vitro corneal permeability, cellular uptake and metabolic stability in human corneal epithelial cells. The class given is in vitro ADME. The conditions noted are these: two hour incubation with Human Corneal Epithelial Cells, 50 μM final concentration. The procedure: Clonetics® human corneal epithelial cells (HCEC) were purchased from Lonza Walkersville, Inc. (Walkersville, Md.) pre-seeded on Costar Transwell™ filters in a 24-well plate. Upon receipt HCEC cells were cultured overnight in a 37° C. incubator ([…], 5% CO2) in media provided by the vendor. Permeability studies were performed within 24 hours of receipt. Dosing solutions 100 μM test article (i.e. ester linked hybrids) were prepared in Lonza's proprietary media by diluting a 50 mM stock solution of the test article in dimethyl sulfoxide. The final percentage of solvent in the incubation was less than 1.0% to prevent inhibition of enzymatic activity or effects on the cell membrane. Transepithelial electrical resistance (TEER) was measured for all wells using a voltohmmeter with STX-2 electrodes (World Precision Instruments Inc., Sarasota, Fla.) after adding 100 μL pre-warmed (37° C.) media to the apical compartment. […] A final TEER value was measured and recorded for all wells.
To evaluate human corneal epithelial cell integrity incubations were conducted using 2 μCi/mL ^3H-mannitol for the same 2 hour incubation period with aliquots taken from the basolateral compartment. ^3H-Mannitol samples were analyzed using liquid scintillation counting. […]

Structures are written as SMILES.

Turning to `COc1c(N2CCN(C(=O)OCOC(=O)C(C)c3ccc(-c4ccccc4)c(F)c3)C(C)C2)c(F)cc2c(=O)c(C(=O)O)cn(C3CC3)c12` (stereo not shown) [Compound 16, 1-cyclopropyl-6-fluoro-7-{4-[({[2-(2-fluorobiphenyl-4-yl)propanoyl]oxy}methoxy)carbonyl]-3-methylpiperazin-1-yl}-8-methoxy-4-oxo-1,4-dihydroquinoline-3-carboxylic acid], the “cellular uptake of hybrid (parent) and hydrolyzed metabolites (FIG. 1)” value was “penetrates into human corneal epithelial cells and is enzymatically hydrolyzed to the individual antibiotic and NSAID”.

Source of the values: patent US20140256666A1, “ANTIBIOTIC CONJUGATES WITH NONSTEROIDAL ANTI-INFLAMMATORY DRUGS” (Allergan, Inc., priority 2013, published 2014).
